≈ marks a conversion by molar mass, not a printed value. Read-outs that look alike come from different tables or passages of the source.
Experiments:
[1] = tested on: honey bees (Apis melifera carnica, Pollman 1879); assay: Single dose acute oral toxicity test on adult worker honey bees; type: in vivo
Experimental: Toxicity of the compounds of this invention towards honey bees (Apis melifera carnica, Pollman 1879) was assessed in comparison with commercially available samples of spinosad (LGC (Dr. Ehrenstorfer); Product code: DRE-C16972830) and the naturally produced compound butenyl spinosyn alpha 1. Solutions of spinosyn compounds were prepared in 100 mM ammonium acetate, pH=5, and later diluted in 50% (500 g/L) sucrose solution in water to final concentrations. Two final concentrations were used for each compound, 7.76 μmol/L and 15.53 μmol/L.
Single dose acute oral toxicity tests were conducted on adult worker bees according to previously described standard methods (Medrzycki at el., (2013)). Each compound and condition were tested in two parallels. Briefly, each parallel experiment consisted of 5 cages with 20 honey bees per cage. […] After uptake of the solutions honey bees were supplied with standard 50% sucrose solution and observed at 24 h and 48 h and the number of dead and live bees was estimated.
Ammonium acetate solution with pH 5 was used as the negative control.

[2] = Stability of J1Aa and J7a at different pH values (LC-MS); type: physicochemical
Experimental: Stability of compounds J1Aa and J7a was evaluated at different pH values. Differential stability/conversion to the active ingredient is expected to result in condition-specific activation and thereby to higher specificity towards target pests.
Stock solutions of the compounds were prepared at concentration of 0.1 mol/L. 10 μL of the stock solutions were transferred to 0.75 ml of the buffer solutions with pH values of 4, 5, 9 and 11. […] After specified times samples were analyzed using LC-MS. The compounds J1Aa and J7a and the active compound spinosyn A were quantified. It is seen that the two compounds are converted to the active form preferably in alkaline conditions.

Kinetic solubility assay = type: physicochemical; conditions: dose conc 200 μM, 25±2° C.
Experimental: Solubility of the compounds of the invention was assessed using kinetic solubility assay and compared to solubility of butenyl spinosyn. Stock solutions of spinosyn compounds were prepared in DMSO at mM concentration). 10 uL of the stock solutions were added into 490 of in K.S. 5.4 buffer of pH 5.4 (80 mM phosphoric acid, acetic acid, boric acid buffer, adjusted the pH to pH 5.4 with 1 N HCl and 1N NaOH) or K.S. 7.4 buffer with pH of 7.4 (80 mM phosphoric acid, acetic acid, boric acid buffer, adjusted the pH to pH 7.4 with 1 N HCl and 1N NaOH). The solutions were incubated with shaking at room […] temperature (25±2° C.) for 24 hours. 200 uL of each solution were then transferred into a new MultiScreen filter plate (Membrane of polycarbonate) and filtered by millipore vacuum manifold, and the filtrate was collected. The concentrtions of tested compounds in the filtered samples were analyzed by HPLC analysis calibrated by a standard curve generated by injection of 3 standard solutions of the relevant compound with concentrations of 1, 20, 200 μM.

[3] = single oral dose 0.078 nmol/bee, 24 h after application
[4] = single oral dose 0.078 nmol/bee, 48 h after application
[5] = single oral dose 0.155 nmol/bee, 24 h after application
[6] = single oral dose 0.155 nmol/bee, 48 h after application

SMILES | % of surviving honey bees [1, 3] [%] | % of surviving honey bees [1, 4] [%] | % of surviving honey bees [1, 5] [%] | % of surviving honey bees [1, 6] [%] | Compound (J1Aa/J7a) Area % remaining ([2]; buffer pH 4, 0.16 h) [%] | SPN Area % (active spinosyn A released) ([2]; buffer pH 4, 0.16 h) [%] | Compound (J1Aa/J7a) Area % remaining ([2]; buffer pH 4, 6 h) [%] | SPN Area % (active spinosyn A released) ([2]; buffer pH 4, 6 h) [%] | Compound (J1Aa/J7a) Area % remaining ([2]; buffer pH 4, 12 h) [%] | SPN Area % (active spinosyn A released) ([2]; buffer pH 4, 12 h) [%] | Compound (J1Aa/J7a) Area % remaining ([2]; buffer pH 4, 24 h) [%] | SPN Area % (active spinosyn A released) ([2]; buffer pH 4, 24 h) [%] | Compound (J1Aa/J7a) Area % remaining ([2]; buffer pH 5, 0.16 h) [%] | SPN Area % (active spinosyn A released) ([2]; buffer pH 5, 0.16 h) [%] | Compound (J1Aa/J7a) Area % remaining ([2]; buffer pH 5, 6 h) [%] | SPN Area % (active spinosyn A released) ([2]; buffer pH 5, 6 h) [%] | Compound (J1Aa/J7a) Area % remaining ([2]; buffer pH 5, 12 h) [%] | SPN Area % (active spinosyn A released) ([2]; buffer pH 5, 12 h) [%] | Compound (J1Aa/J7a) Area % remaining ([2]; buffer pH 5, 24 h) [%] | SPN Area % (active spinosyn A released) ([2]; buffer pH 5, 24 h) [%] | also measured
CC[C@H]1CCC[C@H](OC2CCC([N+](C)(C)COC(=O)C(C)(C)C)C(C)O2)[C@@H](C)C(=O)C2=C[C@@H]3[C@@H](C=C[C@@H]4C[C@@H](OC5OC(C)C(OC)C(OC)C5OC)C[C@@H]34)[C@@H]2CC(=O)O1 (some centres unmarked) [Compound J1Aa] | 99 | 82 | 91 | 42 | 94.2 | 5.8 | 92.9 | 7.1 | 93.8 | 6.2 | 93.5 | 6.5 | 94.1 | 5.9 | 91.0 | 9.0 | 92.0 | 8.0 | 90.4 | 9.6 | Compound (J1Aa/J7a) Area % remaining ([2]; buffer pH 9, 0.16 h): 33.1%; SPN Area % (active spinosyn A released) ([2]; buffer pH 9, 0.16 h): 66.9%; Compound (J1Aa/J7a) Area % remaining ([2]; buffer pH 9, 6 h): 0.0%; SPN Area % (active spinosyn A released) ([2]; buffer pH 9, 6 h): 100.0%; Compound (J1Aa/J7a) Area % remaining ([2]; buffer pH 11, 0.16 h): 0.0%; SPN Area % (active spinosyn A released) ([2]; buffer pH 11, 0.16 h): 100.0%
CC[C@H]1CCC[C@H](OC2CCC([N+](C)(C)COC(=O)OC(C)C)C(C)O2)[C@@H](C)C(=O)C2=C[C@@H]3[C@@H](C=C[C@@H]4C[C@@H](OC5OC(C)C(OC)C(OC)C5OC)C[C@@H]34)[C@@H]2CC(=O)O1 (some centres unmarked) [Compound J7a] | 96 | 88 | 97 | 68 | 92.1 | 7.9 | 91.6 | 8.4 | 91.3 | 8.7 | 90.7 | 9.3 | 91.8 | 8.2 | 90.9 | 9.1 | 90.3 | 9.7 | 89.0 | 11.0 | Compound (J1Aa/J7a) Area % remaining ([2]; buffer pH 9, 0.16 h): 44.4%; SPN Area % (active spinosyn A released) ([2]; buffer pH 9, 0.16 h): 55.6%; Compound (J1Aa/J7a) Area % remaining ([2]; buffer pH 9, 6 h): 0.0%; SPN Area % (active spinosyn A released) ([2]; buffer pH 9, 6 h): 100.0%; Compound (J1Aa/J7a) Area % remaining ([2]; buffer pH 11, 0.16 h): 0.1%; SPN Area % (active spinosyn A released) ([2]; buffer pH 11, 0.16 h): 99.9%
CC/C=C/[C@H]1CCC[C@H](OC2CCC(N(C)C)C(C)O2)[C@@H](C)C(=O)C2=C[C@@H]3[C@@H](C=C[C@@H]4C[C@@H](OC5OC(C)C(OC)C(OC)C5OC)C[C@@H]34)[C@@H]2CC(=O)O1 (stereo partly drawn) [butenyl spinosyn, Butenyl spinosyn α1, reference compound] | 73 | 53 | 42 | 18 |  |  |  |  |  |  |  |  |  |  |  |  |  |  |  |  | toxicity to honey bees compared to corresponding derivatives (in words) ([1]; acute oral toxicity test): higher toxicity to honey bees; solubility kinetic at 24 h (Kinetic solubility assay; K.S. 5.4 buffer, read-out: Kinetic Solubility pH = 5.4): 183.17 µM (≈ 139 µg/mL); solubility kinetic at 24 h (Kinetic solubility assay; K.S. 7.4 buffer, read-out: Kinetic Solubility pH = 7.4): 3.52 µM (≈ 2.67 µg/mL)

Source: US20240209014A1, “NOVEL SPINOSYN PRODRUGS” (Acies Bio d.o.o., priority 2021, published 2024)
